From patent publication US7384656B2, “Anti-allergy composition and related method” (Access Business Group International LLC, priority 2004, dated 2008)

Legend:
[1] = system: LTC4 release, RBL-2H3 cells; test: LTC4 release from IgE-sensitized, DNP-BSA stimulated RBL-2H3 cells (ELISA); format: cell-based; settings: 1 μg/ml
Description: The methodology used to obtain the results of FIG. 9 will now be described. First, RBL-2H3 cells, available from ATCC (American Type Culture Collection) of Manassas, Va., were plated in 24 well plates at 5×10^4/well. Following adherence, the cells were exposed to the ingredients or combination of ingredients noted in FIG. 9, also referred to as samples. The samples were used at the concentrations noted in Table VI. Stock solutions of all samples were prepared in a solution of DMSO, ethanol, and water present in a ratio of 5:3:2 at 100 mg/ml. Each sample was then diluted in media to the final concentration. The cells were then incubated overnight with the samples. The following day a mouse anti-dinitrophenyl (DNP) IgE antibody, available from Sigma of St. Louis, Mo., was added to the cells at a final concentration of 1 ng/ml. The cells were incubated for 1.5 hr at 37° C. to allow binding of the IgE molecule to the cellular IgE receptor via the constant region of the antibody. Following this incubation period, the cells were washed twice. A solution containing DNP conjugated to BSA (DNP-BSA), available from Calbiochem of San Diego, Calif., was added to the cells at 0.5 ng/ml. […] Next, the measured OD450 data from the ELISA was inputted into a calibration graph to determine the amount by which histamine was reduced relative to an untreated control sample. […]

[2] = system: IgE receptor (FcεRIα) on RBL-2H3 cells; test: IgE receptor expression on RBL-2H3 cells (anti-FcεRIα cell ELISA normalized to MTT viability); format: cell-based; settings: 100 μg/ml
Description: The methodology used to obtain the results of FIG. 1 will now be described. First, RBL-2H3 cells, available from ATCC (American Type Culture Collection) of Manassas, Va., were plated in 96 well plates at 3×10^4/well. Following adherence to the wells, the cells were exposed to the sample combinations of ingredients listed in Table I, each combination referred to as a “sample.” Stock solutions of all samples were prepared in a solution of DMSO, ethanol, and water present in a ratio of 5:3:2 at 100 mg/ml. […] Duplicate plates of each sample were prepared so that viability could be determined multiple times for each sample, with the results of the multiple samples averaged following treatment of the cells. The plates were incubated an additional 48 hours. To measure IgE-receptor expression, the cells were fixed for 2 hours with 1% gluteraldehyde. Following fixation, the cells were washed twice with PBS-Tween 20 (0.01%), available from Aldrich of Milwaukee, Wis. Protein binding sites were blocked for 2 hours with 2% non-fat dry milk in PBS (Phosphate Buffer Saline buffered at pH 7.3). The cells were washed twice. The primary antibody, Rabbit anti-FcεRIα, available from Upstate Group, Inc., Lake Placid, N.Y., was added to the wells and diluted 1:4000 with 0.2% BSA (Bovine Serum Albumin). Following a 2 hour incubation, the wells were washed 5× with PBS-Tween 20 (0.01%) solutions. The secondary antibody, Goat anti-rabbit IgG-peroxidase, available from Sigma-Aldrich of St. Louis, Mo., was added to the wells at 1:20000 with 0.2% BSA. Following a 1 hour incubation the wells were washed five times. 100 μliters (microliters) of TMB (3,3′,5,5±Tetramethyl benzidine dihydrochloride) Substrate, available from Chemicon International of Temecula, Calif., was added to the wells. Subsequent color development was stopped by the addition of a sufficient amount, H2SO4 (for example, 100 μliters at 1 Normal). For each of the multiple samples of the combination, the OD450 (Optical Density measured at a wavelength of 450 nanometers) was read on a plate reader. Continuing with a description of the methodology to obtain the data in FIG. 1, the viability of the cells was next determined by incubating the cells in the second plate with MTT in a concentration of 1 mg/ml for 3 hours. The reduced MTT was extracted with 70% isopropanol and the OD540 (Optical Density at a wavelength of 540 nanometers) was read for each of the multiple samples.

O=c1cc(-c2ccc(O)c(O)c2)oc2cc(O)cc(O)c12 [Luteolin]
Percent Control LTC4 Release (Table VI) [1]: 157%
Percent Control, IgE Receptor Expression (IgE-R) (Table VIII) [2]: about 90%
effect on IgE receptor expression, in words (FIG. 7) [2]: significant effect
Percent Control IgE-Receptor (Table IV) ([2]; relative to untreated control cells): 82%
Percent Control, IgE Receptor Expression (IgE-R) (Table VIII) ([2]; listed as Luteolin from Perilla seed): 90.1%
